According to patent publication US9365534B2, “Arylated camphenes, processes for their preparation and uses thereof” (Yissum Research Development Company of the Hebrew …, priority 2009, dated 2016):
Values joined by “and” are separate entries in the source; they are usually repeats but may differ in a detail not shown here. Equal values may be shown once.

How the values were obtained:
closed head injury (CHI) = experiment: Closed head injury (CHI) model, neurological severity score, C57Bl mice; type: in vivo
Procedure: The study was conducted according to the guidelines of the Institutional Animal Care Committee of the Hebrew University. Male Sabra mice weighing 35 to 50 g were used in all experiments. Animals were kept under controlled light conditions with a 12 h/12 h light/dark cycle. Experimental closed head injury (CHI) was induced using a modified weight drop device developed in our laboratory as described previously (Chen et al., 1996). At 1 h after CHI, the functional status of the mice was evaluated according to a set of 10 neurobehavioral tasks, namely the neurological severity score (NSS). This score is based on the ability of the mice to perform 10 different tasks (Beni-Adani et al., 2001) that evaluate their motor ability, balance, and alertness. One point is given for failing to perform a task. The severity of injury is indicated by the initial NSS, which is evaluated 1 h after CHI and is also a reliable predictor of the later outcome. A score of 10 reflects maximal neurologic impairment, and a decrease of NSS during the recovery period indicates partial recovery of function.
Data was analyzed using the Prism 4.02 programme (GraphPad Software, San Deigo, Calif., USA). The data are expressed as mean±SEM and statistical significance was assessed with one way analysis of variance (ANOVA) followed by a Dunnett's post-hoc analysis for TNF-α levels. […]

TNF-α = TNF-α production in brain following CHI (ELISA); type: in vivo, mice; details: HU-914 5 mg/kg i.p. 1 h after CHI, sacrificed 4 hrs after CHI
Procedure: TNF-α activity can be induced by ischemic and traumatic brain injury starting at 1-2 h and reaching the peak at 4 h following CHI. (Shohami et al., 1997). The next step was to investigate the effect of HU-914 on TNF-α production after CHI. Three groups of mice (n=5-6) were subjected to CHI: • Group 1 (Control): Sham controls received anesthesia and skin incision only. • Group 2: Vehicle only (ethanol:cremophor:saline at ratio of 1:1:18), i.p. 1 h after CHI. • Group 3: HU-914, 5 mg/kg, dissolved in vehicle (1:1:18 ethanol:cremophor:saline), i.p. 1 h after CHI.
The animals were sacrificed 4 hrs after CHI by decapitation. Brains were rapidly removed and dissected into ipsilateral and contralateral cortical and hippocampal segments that were frozen in liquid nitrogen and kept at […]. […] Following sonication on ice for 45 s and centrifugation at 12,000 rpm for 20 min, protein concentrations in the supernatants were determined using the Bradford method (Bio-Rad Laboratories, Munich, Germany). Supernatants were analyzed by enzyme-linked immunosorbent assay (ELISA) for production of TNF-α, using cytokine specific kit from R&D Systems (Minneapolis, Minn.). […] TNF-α elevation was not detected in the right cortex or hippocampus (FIG. 8).

CCCCCCC(C)(C)c1cc(OC)c(C2=C[C@H]3CC[C@]2(C(=O)O)C3(C)C)c(OC)c1 [HU-914, (1S,4R)-2-(2,6-dimethoxy-4-(2-methyloctan-2-yl)phenyl)-7,7-dimethylbicyclo[2.2.1]hept-2-ene-1-carboxylic acid]
recovery, Neurological Severity Score (NSS) (closed head injury (CHI); HU-914 2.5 and 5 mg/kg i.p., day 14 post injury, vs vehicle or 10 mg/kg): significant greater recovery
most effective doses (NSS recovery) (closed head injury (CHI); i.p. 1 h after CHI, followed 14 days): 2.5 mg/kg and 5 mg/kg
TNF-α level, left cortex (TNF-α): did not affect the cytokine's level
TNF-α production, hippocampus of the injured left hemisphere (TNF-α): inhibited TNF-α production
